Literature values, collected in US9668974B2, “Depot formulations of a local anesthetic and methods for preparation thereof” (PAINREFORM LTD., priority 2012, dated 2017).

Conditions: in vivo

In the case of `CCCN1CCCC[C@H]1C(=O)Nc1c(C)cccc1C` [ropivacaine], the Toxic threshold (plasma ropivacaine) is listed as 0.6 µg/mL.
